Reference: patent US9326515B2, “Fungicidal 3-[(1,3-thiazol-4-ylmethoxyimino)(phenyl)methyl]-2-substituted-1,2,4-oxadiazol-5(2H)-one derivatives” (BAYER INTELLECTUAL PROPERTY GMBH, priority 2011, dated 2016)

Experiments:
[1] = test system: Phytophthora infestans; format: in vivo; conditions: 100 ppm of active ingredient, spray on young tomato plants, inoculated one day after treatment, evaluated 7 days after inoculation
[2] = pH 2.7
[3] = test system: Phytophthora infestans; format: in vivo; conditions: 500 ppm, spray on tomato plants, contaminated after 24 hours, grading 5 days after contamination vs control plants
[4] = test system: Pyrenophora teres; assay: Example E: in vivo preventive test on Pyrenophora teres (net blotch on barley); conditions: 500 ppm, spray on barley plants, contaminated after 24 hours, grading 14 days after contamination vs control plants
Protocol: (§1) The active ingredients tested are prepared by homogenization in a mixture of acetone/tween/DMSO, and then diluted with water to obtain the desired active material concentration.
Barley plants (“Plaisant” variety), sown in starter cups on a 50/50 peat soil-pozzolana substrate and grown at 22° C., are treated at the 1-leaf stage (10 cm height) by spraying with the active ingredient prepared as described above. Plants, used as controls, are treated with the mixture of acetone/tween/DMSO/water not containing the active material.
After 24 hours, the plants are contaminated by spraying the leaves with an aqueous suspension of Pyrenophora teres spores (12 000 spores per ml). The spores are collected from a 12-day-old culture. The contaminated barley plants are incubated for 48 hours at 20° C. and at 100% relative humidity, and then for 12 days at 20° C. at 70-80% relative humidity.
Grading (% of efficacy) is carried out 14 days after the contamination, in comparison with the control plants.
(§2) Under these conditions, good (at least 70%) or total protection is observed at a dose of 500 ppm with the following compounds: […]

[5] = test system: Septoria tritici; assay: Example G: in vivo preventive test on Septoria tritici (leaf spot on wheat); conditions: 500 ppm, spray on wheat plants, contaminated after 24 hours, grading 24 days after contamination vs control plants
Protocol: as §1
Wheat plants (“Scipion” variety), sown in starter cups on a 50/50 peat soil-pozzolana substrate and grown at 22° C., are treated at the 1-leaf stage (10 cm height) by spraying with the active ingredient prepared as described above. Plants, used as controls, are treated with the mixture of acetone/tween/DMSO/water not containing the active material.
After 24 hours, the plants are contaminated by spraying the leaves with an aqueous suspension of cryopreserved Septoria tritici spores (500 000 spores per ml). The contaminated wheat plants are incubated for 72 hours at 18° C. and at 100% relative humidity, and then for 21 days at 90% relative humidity.
Grading (% of efficacy) is carried out 24 days after the contamination, in comparison with the control plants.
as §2

[6] = test system: Sphaerotheca fuliginea; assay: Example D: in vivo preventive test on Sphaerotheca fuliginea (powdery mildew on cucurbits); conditions: 500 ppm, spray on gherkin plants, contaminated after 24 hours, grading 12 days after contamination vs control plants
Protocol: The active ingredients tested are prepared by homogenization in a mixture of acetone/tween/DMSO and then diluted with water to obtain the desired active material concentration.
Gherkin plants (“Vert petit de Paris” variety), sown in starter cups on a 50/50 peat soil-pozzolana substrate and grown at 24° C., are treated at the Z11 cotyledon stage by spraying with the active ingredient prepared as described above. Plants, used as controls, are treated with the mixture of acetone/tween/DMSO/water not containing the active material.
After 24 hours, the plants are contaminated by spraying the cotyledons with an aqueous suspension of Sphaerotheca fuliginea spores (100 000 spores per ml). The spores are collected from infected plants. The contaminated gherkin plants are incubated at about 20° C. and at 70-80% relative humidity.
Grading (% of efficacy) is carried out 12 days after the contamination, in comparison with the control plants.
as §2

[7] = test system: Alternaria brassicae; assay: Example B: in vivo preventive test on Alternaria brassicae (leaf spot on radish); conditions: 500 ppm, spray on radish plants, contaminated after 24 hours, grading 6 days after contamination vs control plants
Protocol: as §1
Radish plants (“Pernod Clair” variety), sown in starter cups on a 50/50 peat soil-pozzolana substrate and grown at 17° C., are treated at the cotyledon stage by spraying with the active ingredient prepared as described above. Plants, used as controls, are treated with the mixture of acetone/tween/DMSO/water not containing the active material.
After 24 hours, the plants are contaminated by spraying the cotyledons with an aqueous suspension of Alternaria brassicae spores (50 000 spores per ml). The spores are collected from a 15-day-old culture. The contaminated radish plants are incubated at 20° C. and at 100% relative humidity.
Grading (% of efficacy) is carried out 6 days after the contamination, in comparison with the control plants.
as §2

Row | SMILES | Eff. % [1] [%] | LogP [2] | % efficacy [3] [%] | % efficacy [4] [%] | % efficacy [5] [%] | % efficacy [6] [%] | % efficacy [7] [%]
1 | CC(COc1ccccc1)OC(=O)Nc1nc(CON=C(c2ccccc2)c2nc(=O)on2C)cs1 (centres unmarked) [Example 28] | 92 | 3.46 | 97 | 85 | 75 |  | 
2 | Cn1oc(=O)nc1C(=NOCc1csc(NC(=O)OCCOc2ccccc2)n1)c1ccccc1 [Example 21] | 92 | 3.19 | 98 | 80 | 75 | 75 | 
3 | COc1cccc(/C(=N/OCc2csc(NC(=O)C3CCc4ccccc4O3)n2)c2nc(=O)on2C)c1 (racemic) [Example 35] |  | 3.44 | 90 |  |  |  | 100
